Measured values as given in ChEMBL document CHEMBL5291721, “A preclinical secondary pharmacology resource illuminates target-adverse drug reaction associations of marketed drugs” (Nat Commun, 2023).

What was measured:
[1] = molecular target: 5-hydroxytryptamine receptor 2B (Homo sapiens, UniProt P41595); type: functional, cell-based
[2] = molecular target: Prostaglandin G/H synthase 1 (Homo sapiens, UniProt P23219); type: functional
Prothrombin = Prothrombin (Homo sapiens, UniProt P00734); type: functional
[3] = molecular target: T1, Alpha-1A adrenergic receptor (Homo sapiens, UniProt P35348); type: functional, cell-based
T1 sequence (P35348 whole entry): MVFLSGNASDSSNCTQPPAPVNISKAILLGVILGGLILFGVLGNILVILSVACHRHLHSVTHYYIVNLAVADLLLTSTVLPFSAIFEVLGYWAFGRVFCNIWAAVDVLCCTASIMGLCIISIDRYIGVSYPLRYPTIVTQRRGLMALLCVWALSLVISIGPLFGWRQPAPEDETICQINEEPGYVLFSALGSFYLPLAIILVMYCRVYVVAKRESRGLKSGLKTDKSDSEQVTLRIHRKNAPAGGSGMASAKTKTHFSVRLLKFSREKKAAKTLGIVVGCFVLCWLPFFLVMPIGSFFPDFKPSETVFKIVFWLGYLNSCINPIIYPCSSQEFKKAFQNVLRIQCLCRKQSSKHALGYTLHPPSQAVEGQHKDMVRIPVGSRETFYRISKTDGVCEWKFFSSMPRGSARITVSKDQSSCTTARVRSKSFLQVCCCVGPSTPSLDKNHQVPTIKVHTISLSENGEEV

Progesterone receptor = molecular target: T2, Progesterone receptor (Homo sapiens, UniProt P06401)
T2 sequence (P06401 whole entry): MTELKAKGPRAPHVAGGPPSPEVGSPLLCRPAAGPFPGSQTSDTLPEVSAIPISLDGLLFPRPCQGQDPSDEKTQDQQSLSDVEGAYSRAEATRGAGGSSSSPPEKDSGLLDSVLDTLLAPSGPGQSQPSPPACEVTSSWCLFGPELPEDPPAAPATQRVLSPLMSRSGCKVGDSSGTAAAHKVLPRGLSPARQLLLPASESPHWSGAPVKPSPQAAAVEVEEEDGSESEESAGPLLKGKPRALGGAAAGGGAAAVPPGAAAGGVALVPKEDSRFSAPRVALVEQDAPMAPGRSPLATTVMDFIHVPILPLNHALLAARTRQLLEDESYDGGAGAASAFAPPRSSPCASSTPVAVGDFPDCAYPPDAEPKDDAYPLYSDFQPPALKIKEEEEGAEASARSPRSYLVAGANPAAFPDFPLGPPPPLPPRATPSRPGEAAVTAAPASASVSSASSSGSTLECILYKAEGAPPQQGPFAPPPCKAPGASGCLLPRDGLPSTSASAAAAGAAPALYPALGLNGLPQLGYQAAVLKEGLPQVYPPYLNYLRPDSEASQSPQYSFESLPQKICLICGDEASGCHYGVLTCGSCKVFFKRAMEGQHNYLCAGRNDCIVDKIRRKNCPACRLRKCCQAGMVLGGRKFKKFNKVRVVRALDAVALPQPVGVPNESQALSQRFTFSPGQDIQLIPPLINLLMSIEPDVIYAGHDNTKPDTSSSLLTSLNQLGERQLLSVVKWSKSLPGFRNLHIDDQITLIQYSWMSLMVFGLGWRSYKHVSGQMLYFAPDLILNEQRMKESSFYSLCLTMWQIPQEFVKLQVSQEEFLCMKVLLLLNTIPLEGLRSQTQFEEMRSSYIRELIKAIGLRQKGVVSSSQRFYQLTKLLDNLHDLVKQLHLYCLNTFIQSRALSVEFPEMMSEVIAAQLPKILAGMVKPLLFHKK

[4] = molecular target: T3, Alpha-2A adrenergic receptor (Homo sapiens, UniProt P08913)
T3 sequence (P08913 whole entry): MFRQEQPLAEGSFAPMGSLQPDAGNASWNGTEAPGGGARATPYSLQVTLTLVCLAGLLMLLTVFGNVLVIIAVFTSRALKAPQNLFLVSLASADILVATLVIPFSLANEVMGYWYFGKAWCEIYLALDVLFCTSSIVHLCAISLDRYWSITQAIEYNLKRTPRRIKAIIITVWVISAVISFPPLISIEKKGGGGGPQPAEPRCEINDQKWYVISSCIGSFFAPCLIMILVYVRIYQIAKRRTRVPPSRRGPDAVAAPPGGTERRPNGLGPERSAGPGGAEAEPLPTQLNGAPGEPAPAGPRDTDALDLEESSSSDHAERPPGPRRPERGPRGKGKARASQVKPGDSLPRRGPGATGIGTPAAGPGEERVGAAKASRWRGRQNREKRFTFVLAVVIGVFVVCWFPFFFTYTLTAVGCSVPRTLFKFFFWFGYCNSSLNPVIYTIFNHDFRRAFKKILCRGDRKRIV

[5] = molecular target: cGMP-inhibited 3',5'-cyclic phosphodiesterase 3A (Homo sapiens, UniProt Q14432); type: functional
Chain of cGMP-inhibited 3',5'-cyclic phosphodiesterase 3A (Q14432 whole entry): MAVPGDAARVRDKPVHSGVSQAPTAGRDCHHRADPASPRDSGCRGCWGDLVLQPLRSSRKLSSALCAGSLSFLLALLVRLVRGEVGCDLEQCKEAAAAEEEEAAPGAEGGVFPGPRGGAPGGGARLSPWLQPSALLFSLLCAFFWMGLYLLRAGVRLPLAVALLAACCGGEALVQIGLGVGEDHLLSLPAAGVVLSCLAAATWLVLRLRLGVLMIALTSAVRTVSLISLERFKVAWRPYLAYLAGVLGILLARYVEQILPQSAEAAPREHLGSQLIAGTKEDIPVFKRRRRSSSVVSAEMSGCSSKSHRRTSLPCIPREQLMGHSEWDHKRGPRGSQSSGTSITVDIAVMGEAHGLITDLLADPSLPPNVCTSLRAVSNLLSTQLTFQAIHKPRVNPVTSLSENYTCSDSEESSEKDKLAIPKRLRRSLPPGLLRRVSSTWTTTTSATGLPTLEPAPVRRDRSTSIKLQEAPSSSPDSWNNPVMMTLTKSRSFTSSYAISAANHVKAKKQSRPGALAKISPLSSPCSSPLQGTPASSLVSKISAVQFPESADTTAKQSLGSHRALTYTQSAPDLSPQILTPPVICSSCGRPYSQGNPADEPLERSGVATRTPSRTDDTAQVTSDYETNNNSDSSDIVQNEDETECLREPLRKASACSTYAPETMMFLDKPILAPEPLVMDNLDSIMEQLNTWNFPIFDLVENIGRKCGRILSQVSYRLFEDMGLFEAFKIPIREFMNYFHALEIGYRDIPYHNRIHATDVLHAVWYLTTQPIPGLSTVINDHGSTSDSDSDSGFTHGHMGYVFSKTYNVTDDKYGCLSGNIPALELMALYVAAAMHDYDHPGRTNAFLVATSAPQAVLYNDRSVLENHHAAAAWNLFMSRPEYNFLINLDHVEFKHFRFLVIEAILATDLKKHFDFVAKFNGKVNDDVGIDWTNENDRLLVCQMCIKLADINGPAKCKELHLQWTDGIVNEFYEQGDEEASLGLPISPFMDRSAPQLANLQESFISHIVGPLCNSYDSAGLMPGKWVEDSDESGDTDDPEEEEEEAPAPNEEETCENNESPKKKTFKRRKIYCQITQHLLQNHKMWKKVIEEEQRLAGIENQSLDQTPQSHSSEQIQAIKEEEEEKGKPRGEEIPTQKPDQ

D(1A) dopamine receptor = D(1A) dopamine receptor (Homo sapiens, UniProt P21728)
[6] = molecular target: Sodium-dependent dopamine transporter (Homo sapiens, UniProt Q01959)
Chain of Sodium-dependent dopamine transporter (Q01959 whole entry): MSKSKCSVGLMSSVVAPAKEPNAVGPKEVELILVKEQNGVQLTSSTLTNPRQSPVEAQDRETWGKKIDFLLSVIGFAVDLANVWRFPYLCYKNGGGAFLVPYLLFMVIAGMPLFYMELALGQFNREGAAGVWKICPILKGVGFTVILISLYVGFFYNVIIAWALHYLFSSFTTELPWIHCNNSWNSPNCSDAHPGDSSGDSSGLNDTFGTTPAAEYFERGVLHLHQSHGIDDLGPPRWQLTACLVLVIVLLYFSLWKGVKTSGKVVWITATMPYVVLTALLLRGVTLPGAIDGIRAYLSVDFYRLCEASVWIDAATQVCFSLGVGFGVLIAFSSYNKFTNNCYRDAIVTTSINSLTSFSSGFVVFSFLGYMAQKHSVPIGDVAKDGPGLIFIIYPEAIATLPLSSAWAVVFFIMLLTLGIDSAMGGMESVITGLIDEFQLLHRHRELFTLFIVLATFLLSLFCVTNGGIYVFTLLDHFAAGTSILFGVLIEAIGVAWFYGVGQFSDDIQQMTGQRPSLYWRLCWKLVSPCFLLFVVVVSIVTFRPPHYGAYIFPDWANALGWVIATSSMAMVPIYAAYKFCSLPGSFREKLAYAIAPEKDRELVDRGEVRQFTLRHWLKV

[7] = molecular target: Sodium-dependent noradrenaline transporter (Homo sapiens, UniProt P23975)
Chain of Sodium-dependent noradrenaline transporter (P23975 whole entry): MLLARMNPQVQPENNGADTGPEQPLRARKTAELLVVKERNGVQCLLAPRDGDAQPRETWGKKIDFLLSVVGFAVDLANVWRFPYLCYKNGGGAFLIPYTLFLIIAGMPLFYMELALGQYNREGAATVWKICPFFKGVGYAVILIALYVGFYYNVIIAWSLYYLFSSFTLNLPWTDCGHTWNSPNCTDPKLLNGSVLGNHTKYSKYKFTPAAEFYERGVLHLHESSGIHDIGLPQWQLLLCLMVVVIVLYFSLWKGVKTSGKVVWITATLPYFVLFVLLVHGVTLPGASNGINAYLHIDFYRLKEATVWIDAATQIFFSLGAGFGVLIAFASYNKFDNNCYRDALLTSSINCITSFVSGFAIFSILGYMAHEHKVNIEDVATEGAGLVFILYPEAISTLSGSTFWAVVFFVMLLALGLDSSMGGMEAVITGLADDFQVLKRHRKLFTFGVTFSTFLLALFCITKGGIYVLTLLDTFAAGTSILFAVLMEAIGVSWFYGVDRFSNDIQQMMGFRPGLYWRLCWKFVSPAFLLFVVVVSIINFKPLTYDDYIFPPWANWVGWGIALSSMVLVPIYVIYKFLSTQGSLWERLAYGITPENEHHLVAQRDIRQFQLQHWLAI

D(3) dopamine receptor = D(3) dopamine receptor (Homo sapiens, UniProt P35462)
Chain of D(3) dopamine receptor (P35462 whole entry): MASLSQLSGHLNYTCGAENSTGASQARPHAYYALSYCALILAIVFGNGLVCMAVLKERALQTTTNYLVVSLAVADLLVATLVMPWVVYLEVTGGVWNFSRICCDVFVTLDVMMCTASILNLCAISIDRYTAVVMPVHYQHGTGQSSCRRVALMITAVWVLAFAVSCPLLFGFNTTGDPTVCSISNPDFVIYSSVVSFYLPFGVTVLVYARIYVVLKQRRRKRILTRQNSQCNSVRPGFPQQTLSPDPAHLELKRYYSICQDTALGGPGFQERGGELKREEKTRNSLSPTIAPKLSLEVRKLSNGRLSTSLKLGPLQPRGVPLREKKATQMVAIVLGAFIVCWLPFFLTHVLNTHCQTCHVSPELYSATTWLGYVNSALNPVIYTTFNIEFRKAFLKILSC

[8] = molecular target: Voltage-gated inwardly rectifying potassium channel KCNH2 (Homo sapiens, UniProt Q12809); type: functional
Histamine H3 receptor = Histamine H3 receptor (Homo sapiens, UniProt Q9Y5N1)
Chain of Histamine H3 receptor (Q9Y5N1 whole entry): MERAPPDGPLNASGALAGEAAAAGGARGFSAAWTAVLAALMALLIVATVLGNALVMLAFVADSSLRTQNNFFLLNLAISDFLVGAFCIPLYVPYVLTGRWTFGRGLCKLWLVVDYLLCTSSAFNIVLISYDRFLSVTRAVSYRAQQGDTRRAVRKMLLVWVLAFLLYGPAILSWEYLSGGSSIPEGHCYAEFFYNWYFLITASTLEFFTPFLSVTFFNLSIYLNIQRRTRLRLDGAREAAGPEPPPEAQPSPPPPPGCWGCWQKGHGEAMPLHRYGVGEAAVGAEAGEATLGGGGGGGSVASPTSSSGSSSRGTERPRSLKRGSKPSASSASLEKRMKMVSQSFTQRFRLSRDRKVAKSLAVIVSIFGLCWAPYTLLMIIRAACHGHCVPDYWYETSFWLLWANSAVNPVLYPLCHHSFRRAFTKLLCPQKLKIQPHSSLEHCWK

Thromboxane A2 receptor = molecular target: T4, Thromboxane A2 receptor (Homo sapiens, UniProt P21731); type: functional, cell-based
T4 sequence (P21731 whole entry): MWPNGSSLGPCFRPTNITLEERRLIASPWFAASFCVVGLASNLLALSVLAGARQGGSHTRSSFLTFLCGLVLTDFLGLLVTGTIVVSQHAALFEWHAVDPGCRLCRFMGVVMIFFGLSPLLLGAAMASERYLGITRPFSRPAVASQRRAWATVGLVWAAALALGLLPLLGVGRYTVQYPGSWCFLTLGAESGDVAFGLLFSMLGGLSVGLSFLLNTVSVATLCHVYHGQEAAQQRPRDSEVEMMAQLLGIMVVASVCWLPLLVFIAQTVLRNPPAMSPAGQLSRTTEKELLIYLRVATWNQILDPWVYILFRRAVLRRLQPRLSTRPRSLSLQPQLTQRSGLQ

Mu-type opioid receptor = Mu-type opioid receptor (Homo sapiens, UniProt P35372)
Chain of Mu-type opioid receptor (P35372 whole entry): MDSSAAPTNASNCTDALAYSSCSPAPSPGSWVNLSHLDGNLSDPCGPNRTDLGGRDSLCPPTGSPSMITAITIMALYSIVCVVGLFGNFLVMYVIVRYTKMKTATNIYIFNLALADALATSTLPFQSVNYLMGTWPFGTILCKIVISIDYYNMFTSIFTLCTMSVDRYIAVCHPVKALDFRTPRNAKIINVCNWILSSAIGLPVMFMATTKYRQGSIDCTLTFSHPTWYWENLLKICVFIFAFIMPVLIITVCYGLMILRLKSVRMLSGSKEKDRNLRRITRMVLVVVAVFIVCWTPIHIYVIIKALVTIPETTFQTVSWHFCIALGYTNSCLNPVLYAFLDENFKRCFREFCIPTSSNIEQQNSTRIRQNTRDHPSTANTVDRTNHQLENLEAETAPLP
Also: assay procedure not described here.

Chain of 5-hydroxytryptamine receptor 2B (P41595 whole entry): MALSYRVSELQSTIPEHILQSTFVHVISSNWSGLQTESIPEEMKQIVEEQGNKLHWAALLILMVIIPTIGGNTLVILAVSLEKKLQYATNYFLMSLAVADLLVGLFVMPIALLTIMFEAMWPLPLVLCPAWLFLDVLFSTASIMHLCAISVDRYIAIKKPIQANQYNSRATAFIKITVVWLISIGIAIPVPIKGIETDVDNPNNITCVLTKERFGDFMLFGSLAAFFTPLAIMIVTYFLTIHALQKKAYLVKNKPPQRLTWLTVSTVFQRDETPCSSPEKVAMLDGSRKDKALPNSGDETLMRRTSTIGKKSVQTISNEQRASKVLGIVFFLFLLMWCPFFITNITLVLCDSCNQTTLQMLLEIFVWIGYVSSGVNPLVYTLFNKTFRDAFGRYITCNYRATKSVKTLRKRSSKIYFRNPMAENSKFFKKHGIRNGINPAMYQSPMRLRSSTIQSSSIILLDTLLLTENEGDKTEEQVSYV
Chain of Prostaglandin G/H synthase 1 (P23219 whole entry): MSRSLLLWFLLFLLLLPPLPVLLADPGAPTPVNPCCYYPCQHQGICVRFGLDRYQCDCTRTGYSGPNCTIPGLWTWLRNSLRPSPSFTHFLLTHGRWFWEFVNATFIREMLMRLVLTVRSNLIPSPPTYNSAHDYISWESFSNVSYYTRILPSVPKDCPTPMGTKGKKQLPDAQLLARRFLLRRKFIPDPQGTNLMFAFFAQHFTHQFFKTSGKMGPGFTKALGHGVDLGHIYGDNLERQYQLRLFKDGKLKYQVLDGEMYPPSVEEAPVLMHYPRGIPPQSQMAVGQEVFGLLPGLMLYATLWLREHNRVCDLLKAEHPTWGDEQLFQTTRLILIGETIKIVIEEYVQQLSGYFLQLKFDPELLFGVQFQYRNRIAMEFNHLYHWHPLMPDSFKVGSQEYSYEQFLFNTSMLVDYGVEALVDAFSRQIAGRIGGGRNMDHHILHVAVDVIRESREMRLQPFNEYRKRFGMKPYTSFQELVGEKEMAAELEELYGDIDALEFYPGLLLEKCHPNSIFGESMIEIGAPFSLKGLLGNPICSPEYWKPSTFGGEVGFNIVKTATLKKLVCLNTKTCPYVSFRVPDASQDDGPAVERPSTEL

Row | SMILES | AC50 [1] [µM] | AC50 [2] [µM] | AC50 (Prothrombin) [µM] | AC50 [3] [µM] | AC50 (Progesterone receptor) [µM] | AC50 [4] [µM] | AC50 [5] [µM] | AC50 (D(1A) dopamine receptor) [µM] | AC50 [6] [µM] | AC50 [7] [µM] | AC50 (D(3) dopamine receptor) [µM] | AC50 [8] [µM] | AC50 (Histamine H3 receptor) [µM] | AC50 (Thromboxane A2 receptor) [µM] | AC50 (Mu-type opioid receptor) [µM]
1 | Cc1cc(=O)[nH]c(=S)[nH]1 [METHYLTHIOURACIL] | > 30 | > 30 | > 30 | > 30 | > 30 | > 30 | > 30 | > 30 | > 30 | > 30 | > 30 | > 30 | > 30 | > 30 | > 30
2 | CN(C)c1ccc(O)c2c1C[C@H]1C[C@H]3[C@H](N(C)C)C(O)=C(C(N)=O)C(=O)[C@@]3(O)C(O)=C1C2=O [MINOCYCLINE] | > 30 | 2.5 | > 30 | > 30 | > 30 | > 30 | > 30 | > 30 | > 30 | > 30 | > 30 | > 30 | > 30 | > 30 | > 30
3 | CCNC(=O)/C=C(C)/C=C/C=C(C)/C=C/c1c(C)cc(OC)c(C)c1C [MOTRETINIDE] | > 30 | 12 | > 30 | > 30 | 0.932 | > 30 | > 30 | > 30 | > 10 | 24.1 | > 30 | 5.7 | > 30 | > 30 | 28.4
4 | C=CC(=O)Nc1cccc(Oc2nc(Nc3ccc(N4CCN(C)CC4)cc3)nc3ccsc23)c1 [OLMUTINIB] | > 30 | > 30 | > 30 | > 30 | > 30 | 0.881 | > 30 | 3.81 | 0.0559 | 12.3 | 0.453 | 0.54 | 0.94 | > 30 | 5.5
5 | COc1ccc2[nH]c([S+]([O-])Cc3ncc(C)c(OC)c3C)nc2c1 (stereo not given) [OMEPRAZOLE] | > 30 | > 30 | > 30 | > 30 | > 30 | > 30 | > 30 | > 30 | > 30 | > 30 | 20.7 | 17 | > 30 | > 30 | 12
6 | CCCCC1C(=O)N(c2ccccc2)N(c2ccc(O)cc2)C1=O (stereo not given) [OXYPHENBUTAZONE ANHYDROUS] | > 30 | 21.8 | > 30 | > 30 | > 30 | > 30 | > 30 | > 30 | > 30 | > 30 | > 30 | > 30 | > 30 | > 30 | > 30
7 | O=C(O)CN(CCN(CC(=O)O)CC(=O)O)CCN(CC(=O)O)CC(=O)O [PENTETIC ACID] | > 30 | > 30 | > 30 | > 30 | > 30 | 1.32 | > 30 | 8.71 | 6.51 | 10.9 | 2.26 | > 30 | 19.8 | > 30 | > 30
8 | Nc1cccc2c1C(=O)N(C1CCC(=O)NC1=O)C2=O (stereo not given) [POMALIDOMIDE] | > 30 | > 30 | > 30 | > 30 | > 30 | > 30 | > 30 | > 30 | > 30 | > 30 | > 30 | > 30 | > 30 | 26.7 | > 30
9 | C[Se]CC[C@H](N)C(=O)O [SELENOMETHIONINE] | > 30 | > 30 | > 30 | > 30 | > 30 | > 30 | > 30 | > 30 | > 30 | > 30 | > 30 | > 30 | > 30 | > 30 | > 30
10 | Cc1ccsc1C(=CCCN1CCC[C@@H](C(=O)O)C1)c1sccc1C [TIAGABINE] | > 30 | > 30 | > 30 | > 30 | > 30 | > 30 | > 30 | > 30 | > 30 | > 30 | > 30 | > 30 | > 30 | > 30 | > 30
11 | Cc1ccc(C(=O)c2ccc(CC(=O)O)n2C)cc1 [TOLMETIN] | > 30 | 0.0415 | > 30 | > 30 | > 30 | > 30 | > 30 | > 30 | > 30 | > 30 | > 30 | > 30 | > 30 | > 30 | > 30
12 | Cc1ccccc1C(=O)Nc1ccc(C(=O)N2CCCC(O)c3cc(Cl)ccc32)c(C)c1 (stereo not given) [TOLVAPTAN] | > 30 | > 30 | > 30 | > 30 | > 30 | > 30 | > 30 | > 30 | > 30 | > 30 | > 30 | > 30 | > 30 | > 30 | 6.71
